For data set [1] the following is noted: mushroom test meal, 8 g and 16 g mushroom powder; cited from earlier work.
The subject of data set [2] is Drosophila melanogaster. The data set is described as follows: survival under Paraquat-induced oxidative stress. The class given is in vivo. The note with it: 10 mM Paraquat. Here is the method: The effect of Agaricus Blazei without enrichment, with Vitamin D2 enrichment, pure Vitamin D2 and control (vehicle for the delivery) on the survival rate of Drosophila melanogaster under Paraquat-induced oxidative stress condition was tested. The study focused on the control of Paraquat induced oxidative stress/biologic death. Paraquat is a very potent oxidative stress inducing chemical and causes death in animals and plants by the toxicity of released free radicals. Paraquat (10 mM concentration) (Sigma Aldrich) was used to chemically induce oxidative stress. Paraquat is the trade name for N,N′-dimethyl-4,4′-bipyridinium dichloride, a widely used herbicide. Paraquat, a viologen, is quick-acting and non-selective, killing green plant tissue on contact. It is also toxic to humans when swallowed. This is the most standard chemical used in experimental induction of oxidative stress using the Drosophila model system. It catalyzes the formation of reactive oxygen species (ROS). Paraquat will undergo redox cycling in vivo, gets reduced by an electron donor such NADPH, before being oxidized by an electron receptor such as dioxygen to produce superoxide, a major ROS.
The following materials and methods were utilized. Vials containing 10 mM Paraquat (from Sigma Aldrich) in 5 ml of 1.2% Low melting point Agarose medium were prepared. A strip of half moist filter paper was inserted in the medium (with the wet end in). Yeast paste containing 1% concentration (w/w) of the various test materials (see above) mixed to homogeneity was prepared. Yeast paste without drug was used as control. Uniform aliquot (˜300 mg) of yeast paste with or without the test material) was applied to vials in such a way that yeast paste was on the glass surface and covered the dry end (top) of the filter paper strip. Freshly enclosed wild type isogenized Canton-S males and females were collected and starved on 1% agar medium for 5-6 hours. Four males and females were transferred to the vial containing 10 mM Paraquat in LMP agarose medium and yeast paste with +/− test material (8 flies per vial). 6 vials were used per experiment. Vials with flies were placed horizontally in a tray. The experiment was conducted at 25 degrees C. temperature. Flies were transferred once in 2 days and the number of flies surviving at each transfer was recorded.

Data set [3] concerns Alzheimer's disease mutant fruit fly (APP over-expression). The data set is described as follows: survival and life span in Alzheimer's disease (AD) model flies. The arrangement: species or system Drosophila. The note with it: in vivo.
From the text: Type of Model (with specific Drosophila model of neurodegeneration). The targeted over/ectopic expression of APP in the brain using a UAS promoter driven APP transgene, induced by a specific GAL4 trans-driver in the brain of a Drosophila model system, was used for this Example.
The AD strain lives only for a few days after their eclosion (birth) as opposed to 65 days or more for wild type normal strains.
We determined the extension of life span in the mutant strain for each test compound. We used a specific GAL4 driver that induces the APP gene in the central brain area at high levels (see above) and results in a fully penetrant lethality within a 2-3 weeks period.
The test system of data set [4] is hemodialysis patients. As to conditions: human, in vivo; cited from earlier work.
The subject of data set [5] is vitamin D-deficient dialysis patients. The note with it: 81 patients; cited from earlier work.

Molecules are shown by their SMILES.

On to `C[N+](C)(C)[C@@H](Cc1c[nH]c(=S)[nH]1)C(=O)[O-]` [ET, L-Ergothioneine], for which, in data set [1], the “bioavailability of ET from mushrooms” value is “bioavailable” and the “time of ET peak in red blood cells after mushroom consumption” value is 2 h.
For `C=C1CC[C@H](O)C/C1=C/C=C1\CCC[C@]2(C)[C@@H]([C@H](C)CCCC(C)C)CC[C@@H]12` [Vitamin D3, cholecalciferol], the “effect on survival under Paraquat-induced oxidative stress (words)” value in data set [2] was “no beneficial effect”. Besides, the “survival rate of AD flies relative to control” value in data set [3] is “no such effect”.
Turning to `C=C1CC[C@H](O)C/C1=C/C=C1\CCC[C@]2(C)[C@@H]([C@H](C)/C=C/[C@H](C)C(C)C)CC[C@@H]12` [pure Vitamin D2, Ergocalciferol], the “effect on survival under Paraquat-induced oxidative stress (words)” value was “no effect” in data set [2], “no beneficial effect” in data set [2] (listed as Vitamin D2) and “deleterious effect” in data set [2] (listed as Vitamin D2 in its pure form). Besides, the “survivability under Paraquat-induced oxidative stress” value in data set [2] (1% w/w in yeast paste, over 10 days, 25 degrees C) was 13%+/−3%. In addition, the “survival rate of AD flies relative to control” value in data set [3] is listed as “no such effect”. In data set [4], the “patients with a reduction in EPO dose after supplementation” value was 64%. The “patients able to reach 25-D levels of 30 ng/mL or greater” value in data set [5] is recorded as 44%. Moreover, the “patients requiring less EPO with supplementation” value in data set [5] is recorded as 57%.
